Reference: US9789114B2, “Compounds as HIF-1α inhibitors and manufacturing process thereof” (DONGGUK UNIVERSITY INDUSTRY-ACADEMIC COOPERATION FOUNDATION, priority 2011, dated 2017)
Where two headings read alike, the source gives them in different places.

Columns and labels:
[1] = test system: HIF-1α-mediated HRE transcriptional activity; experiment: Assay for inhibition of HIF-1α-mediated transcriptional activity (HRE reporter assay); format: cell-based, human; settings: Homo sapiens, HCT-116, HCT116 cells, 12 hours under hypoxia (1% O2), read-out: Inhibitory activity against HIF-1α (10 μM)
Procedure: <Experiment 1> Assay for Inhibition of HIF-1α-Mediated Transcriptional Activity (HRE Reporter Assay)
The compounds can be developed as anti-cancer drugs, because the compounds inhibiting HIF-1α-mediated HRE transcriptional activity induced by hypoxia can suppress the growth and metastasis of cancer.
Inhibitory effects of the compounds according to the present invention, from Formula I-1 to I-42, on HIF-1α-mediated transcriptional activity were evaluated using this assay. pGL3-HRE-luciferase vector was constructed as follows. Six copies of HRE (Hypoxia Responsive Element, 5′-ACGTG-3′) from human VEGF genes were inserted into the multi-cloning site of a pGL3-basic vector (Promega). A luciferase gene was used as a reporter gene.
In detail, HCT116(ATCC #CCL-247) human colon cancer cells were seeded in 48-well cell culture plates. The cells were co-transfected with 25 ng of pGL3-HRE-luciferase and 2.5 ng of Renila control vectors using Polyfect reagent next day. After 24 hours of incubation, the cells were incubated for an additional 4 hours with replaced cell culture media. The cells were treated with various concentrations (0, 1, 3, 5, 10, and 20 μM) of the above compounds according to the present invention and incubated for 12 hours under hypoxia (1% O2, 94% N2, and 5% CO2). The luciferase assay was performed using a dual-luciferase reporter assay system (Promega). After cell lysate preparation with RIPA buffer, induced luciferase activity under hypoxic conditions was determined to examine inhibitory effects of the compounds according to the present invention, from Formula I-1 to I-42, on HIF-1α-mediated transcriptional activity.

HIF-1α = biological target: T1, HIF-1α (Homo sapiens, UniProt Q16665); experiment: Inhibition of hypoxia-induced HIF-1α accumulation, western blot in HCT116 cells; format: cell-based; settings: HCT116, hypoxia 1% O2, 0-30 μM, 12 hours, FIG. 1
T1 construct: endogenous in cells; host or cells: HCT116 human colon cancer cells (ATCC #CCL-247)
T1 sequence (Q16665 whole entry): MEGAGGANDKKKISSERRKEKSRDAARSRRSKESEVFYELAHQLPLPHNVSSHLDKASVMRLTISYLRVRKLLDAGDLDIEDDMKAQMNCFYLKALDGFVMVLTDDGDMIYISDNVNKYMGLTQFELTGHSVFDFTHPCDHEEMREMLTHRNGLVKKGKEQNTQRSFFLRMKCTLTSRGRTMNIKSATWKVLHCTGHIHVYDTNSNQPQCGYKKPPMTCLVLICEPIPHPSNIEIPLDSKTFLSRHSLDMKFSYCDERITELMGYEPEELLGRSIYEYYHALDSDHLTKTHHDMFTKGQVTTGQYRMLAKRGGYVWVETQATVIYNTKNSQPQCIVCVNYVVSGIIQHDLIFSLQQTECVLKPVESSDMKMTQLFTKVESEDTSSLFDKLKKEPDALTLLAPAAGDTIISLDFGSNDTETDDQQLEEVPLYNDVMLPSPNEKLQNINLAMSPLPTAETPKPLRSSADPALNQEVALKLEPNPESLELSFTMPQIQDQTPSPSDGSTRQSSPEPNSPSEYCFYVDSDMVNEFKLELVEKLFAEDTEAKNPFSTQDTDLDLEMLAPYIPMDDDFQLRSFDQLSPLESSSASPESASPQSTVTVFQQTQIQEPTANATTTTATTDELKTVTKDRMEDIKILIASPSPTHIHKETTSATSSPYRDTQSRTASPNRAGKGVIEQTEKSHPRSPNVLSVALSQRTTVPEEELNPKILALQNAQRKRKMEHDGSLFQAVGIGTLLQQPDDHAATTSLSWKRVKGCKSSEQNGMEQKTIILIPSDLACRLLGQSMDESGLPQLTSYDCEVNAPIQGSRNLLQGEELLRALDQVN
Procedure: <Experiment 2> In Vitro Studies for Inhibition of Hypoxia-Induced HIF-1α Accumulation
Inhibition of HIF-1α accumulation by the compounds according to the present invention was determined in HCT116 human colon cancer cells. In particular, western blot analysis was used to identify the compounds, I-3, I-6, I-8, I-16, I-19, I-22˜I-24, and I-27˜I-36, which inhibited HIF-1α accumulation under hypoxia.
(§1) First, HCT116 human colon cancer cells (ATCC #CCL-247) were plated at the concentration of 2×10^5 cells/ml. After 24 hours, the cells were incubated under hypoxia (1% O2, 94% N2, and 5% CO2, expressed as 1% O2 in FIG. 1) for 4 hours in order to induce HIF-la accumulation. Cells were treated with the compounds at various concentrations (0, 3, 10, 20, and 30 μM) for 12 hours under hypoxia. The cells were then harvested, and lysed in RIPA buffer to obtain nuclear extracts. Cells grown at 20% O2 (normoxia) were used as control groups to compare HIF-1α-mediated gene expression under each condition. 30 μg of the nuclear extracts per sample was separated by SDS-PAGE (sodium dodecyl sulfate-polyacrylamide gel electrophoresis), and was then transferred to PVDF (polyvinylidene fluoride membrane) membranes. After membranes were probed with HIF-1α antibodies (R&D System), HIF-1α proteins were detected with HRP-conjugated secondary antibodies (Amersham-Pharmacia). GAPDH (Glyceraldehyde 3-phosphate dehydrogenase) was used as an internal control for loading in western blot analysis.

GAPDH = GAPDH expression level (internal control) in western blot, HCT116 cells; format: cell-based, human; settings: HCT116, hypoxia 1% O2, 0-30 μM, 12 hours, FIG. 1
Procedure: as §1

[2] = test system: Chick embryo chorioallantoic membrane; experiment: CAM (chick embryo chorioallantoic membrane) assay; format: in vivo; settings: 10-20 μg on coverslip, 2 days, FIG. 2
Procedure: CAM (Chick embryo chorioallantoic membrane) assay was conducted as an in vivo model to determine whether the compounds according to the present invention, I-3, I-6, I-19, and I-22, had anti-angiogenic effects or not. DMSO-treated groups were used as negative controls.
According to the present invention, CAM assay was performed as follows.
Fertilized eggs were incubated periodically rolling at 37° C. with 50% humidity for 2-3 days. When eggs were erected, approximately 3 ml of albumin was extracted from the sharp edge of the eggs using a syringe. The hole of the eggs was sealed with a tape to prevent from dryness and contamination, and the hole of the eggs was put down and incubated for 2 to 3 days. After punching a hole with 1.5 cm diameter in the round part of eggs, opaque membrane was removed carefully. The compounds (10-20 μg) according to the present invention were placed and spread on thermanox coverslip equally to dry, and then the hole in the round part of eggs put on the upper part of the fertilized eggs that vessels grew. The eggs were examined under the dissecting microscope and the results were given in FIG. 2, after covering the hole with a coverglass to protect it from contamination for 2 days.

[3] = test system: HCT116 colon cancer cells; experiment: In vivo anti-cancer activity by oral administration, HCT116 tumor in nude mice; design: species or system BALB/c nu/nu mice; settings: for inhibitory effects on tumor growth (TGI results): 20 mg/kg oral once a day, 14 days; for inhibition in vivo at 20 mg/kg: Mus musculus
Procedure: <Example 4> In Vivo Anti-Cancer Activity of Compounds by Oral Administration
(§2) In vivo anti-cancer activity of the compounds according to the present invention, I-3, I-6, I-8, I-16, I-19, I-22, I-23, and I-24, was measured in mice to evaluate in vivo efficacy by oral administration. Specifically, the nude mice were divided into test groups and control groups, each consisting of 4 mice. In vivo efficacy was evaluated by measuring body weight, tumor volume, and tumor weight.
(§3) Female nude mice 6 weeks old (BALB/c nu/nu, Charles River) were bred in germ-free breeding rooms maintained at constant temperature and humidity. After the nude mice were anesthetized, HCT116 colon cancer cells were implanted at a count of […] cells/mouse into the rectum in BALB/c nu/nu mice and then the incisions were closed with surgical clips. The size of tumor was measured by a caliper. When the size of transplanted tumor reached to 50˜60 mm^3, the above compounds according to the present invention were administered. In more detail, after the above compounds in test groups were dissolved at concentration of 20 mg/kg in a solvent containing 80% of physiological saline, 10% of DMAC (dimethylacetamide), and 10% Tween 80 (hereinafter referred to as ‘Solvent A’), […] of dissolved compounds were orally administered once a day. Mice in control groups were treated with […] of Solvent A alone once daily.
(§4) Tumor volume and body weight were measured to identify in vivo anti-cancer activity of the compounds according to the present invention by repetitive oral administration. Tumor volume and tumor growth inhibition (TGI) in Table 2 were calculated according to the below Mathematic FIG. 1 and FIG. 2, respectively. Tumor growth inhibition was converted to a percentage in Table 2.

[4] = Body weight change and side effects during 14 days of oral treatment in nude mice; format: in vivo, BALB/c nu/nu mice
Procedure: as §2, §3, §4
Moreover, severe side effects and statistically significant changes of body weight in all mice treated compounds were not shown for 14 days, comparing to control groups treated with vehicle. (Table 3)

[5] = HCT-116, 72 h, day 3, 20 mg/kg oral once a day, read-out: TGI (tumor growth inhibition), tumor volume
[6] = HCT-116, 120 h, day 5, 20 mg/kg oral once a day, read-out: TGI (tumor growth inhibition), tumor volume
[7] = HCT-116, 168 h, day 7, 20 mg/kg oral once a day, read-out: TGI (tumor growth inhibition), tumor volume
[8] = HCT-116, 240 h, day 10, 20 mg/kg oral once a day, read-out: TGI (tumor growth inhibition), tumor volume
[9] = HCT-116, 288 h, day 12, 20 mg/kg oral once a day, read-out: TGI (tumor growth inhibition), tumor volume
[10] = HCT-116, 336 h, day 14, 20 mg/kg oral once a day, read-out: TGI (tumor growth inhibition), tumor volume
[11] = HCT-116, 336 h, day 14, 20 mg/kg oral once a day, read-out: TGI (tumor growth inhibition), tumor weight
[12] = day 3, 20 mg/kg oral once a day
[13] = day 5, 20 mg/kg oral once a day
[14] = day 7, 20 mg/kg oral once a day
[15] = day 10, 20 mg/kg oral once a day
[16] = day 12, 20 mg/kg oral once a day
[17] = day 14, 20 mg/kg oral once a day
[18] = day 0, 20 mg/kg oral once a day

| SMILES | inhibition at 10 µM [1] [%] | inhibitory effects on HIF-1α accumulation (HIF-1α) | formation of vessels (anti-angiogenic effect) [2] | inhibitory effects on tumor growth (TGI results) [3] | inhibition in vivo at 20 mg/kg [3, 5] [%] | inhibition in vivo at 20 mg/kg [3, 6] [%] | inhibition in vivo at 20 mg/kg [3, 7] [%] | inhibition in vivo at 20 mg/kg [3, 8] [%] | inhibition in vivo at 20 mg/kg [3, 9] [%] | inhibition in vivo at 20 mg/kg [3, 10] [%] | inhibition in vivo at 20 mg/kg [3, 11] [%] | Tumor volume [3, 12] [mm^3] | Tumor volume [3, 13] [mm^3] | Tumor volume [3, 14] [mm^3] | Tumor volume [3, 15] [mm^3] | Tumor volume [3, 16] [mm^3] | Tumor volume [3, 17] [mm^3] | Tumor weight [3, 17] [mg] | Body weight change [4, 18] [%] | Body weight change [4, 12] [%] | other results |
| --- | --- | --- | --- | --- | --- | --- | --- | --- | --- | --- | --- | --- | --- | --- | --- | --- | --- | --- | --- | --- | --- |
| CN1CCN(C(=O)COc2ccc(C34CC5CC(CC(C5)C3)C4)cc2)CC1 [Compound I-3, 2-(4-(Adamantan-1-yl)phenoxy)-1-(4-methylpiperazin-1-yl)ethanone] | 76 to 100 | significant inhibitory effects on HIF-1α accumulation | inhibited formation of vessels | significant inhibitory effects on tumor growth | 33.2 | 35 | 36 | 41.6 | 44.1 | 49.2 | 51.5 | 31.6 ± 5.0 | 74.8 ± 11.7 | 133.7 ± 14.8 | 237.0 ± 24.9 | 371.4 ± 36.2 | 587.8 ± 48.4 | 2074.2 ± 373.8 | 100.0 ± 0.0 | 103.2 ± 2.8 | HIF-1α degradation (HIF-1α): promoted HIF-1α degradation; GAPDH expression levels (GAPDH): did not affect GAPDH expression levels; Body weight change [4, 13]: 104.7 ± 3.0%; Body weight change [4, 14]: 105.1 ± 2.8%; Body weight change [4, 15]: 104.6 ± 2.7%; Body weight change [4, 16]: 103.1 ± 2.7%; Body weight change [4, 17]: 103.7 ± 4.0% |
| C[N+](C)(C)CCNC(=O)CCOc1ccc(C23CC4CC(CC(C4)C2)C3)cc1.[I-] [Compound I-19, 2-(3-(4-(Adamantan-1-yl)phenoxy)propanamido)-N,N,N-trimethylethanaminium iodide] | 26 to 50 | significant inhibitory effects on HIF-1α accumulation | inhibited formation of vessels | significant inhibitory effects on tumor growth | 34.1 | 36.4 | 36.8 | 37.7 | 37.8 | 39.2 | 41.3 | 22.4 ± 5.6 | 58.8 ± 11.3 | 110.4 ± 11.2 | 162.3 ± 10.1 | 278.8 ± 35.0 | 404.7 ± 17.6 | 1392.4 ± 153.0 | 100.0 ± 0.0 | 104.0 ± 1.6 | HIF-1α degradation (HIF-1α): promoted HIF-1α degradation; GAPDH expression levels (GAPDH): did not affect GAPDH expression levels; Body weight change [4, 13]: 104.7 ± 3.1%; Body weight change [4, 14]: 104.6 ± 4.0%; Body weight change [4, 15]: 105.1 ± 4.3%; Body weight change [4, 16]: 103.4 ± 3.5%; Body weight change [4, 17]: 102.2 ± 3.8% |
| C[N+]1(C)CCN(C(=O)CCCOc2ccc(C34CC5CC(CC(C5)C3)C4)cc2)CC1.[I-] [Compound I-22, 4-(4-(4-(Adamantan-1-yl)phenoxy)butanoyl)-1,1-dimethylpiperazin-1-ium iodide] | 51 to 75 | significant inhibitory effects on HIF-1α accumulation | inhibited formation of vessels | significant inhibitory effects on tumor growth | 39.8 | 40.8 | 43.4 | 45.1 | 45.1 | 47.8 | 49.5 | 20.4 ± 1.1 | 54.7 ± 2.8 | 98.9 ± 4.8 | 143.1 ± 6.2 | 246.4 ± 10.8 | 347.6 ± 11.8 | 1197.3 ± 156.3 | 100.0 ± 0.0 | 104.1 ± 3.5 | Body weight change [4, 13]: 104.1 ± 4.6%; Body weight change [4, 14]: 104.1 ± 3.3%; Body weight change [4, 15]: 105.6 ± 5.1%; Body weight change [4, 16]: 103.8 ± 3.6%; Body weight change [4, 17]: 102.7 ± 4.1% |
